The assay deals with U87MG cells. Nature of the assay: Cellular assay, inhibition of 2-HG production in U87MG cells. The assay is classed as cell-based. The conditions noted are these: Homo sapiens, U-87 MG, 48 h. A digest of the protocol:
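HT1080 or U87MG cells (U87MG kept with 500 ug/mL G418) seeded at 5000 cells/well and treated with compound at 0.2% final DMSO. Incubated 48 h at 37 °C. 2-HG inhibition determined by LC-MS. Viability read by CellTiter-Glo luminescence at 72 h post-dose.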

Consider 25 compounds from patent US10689414B2 (Agios Pharmaceuticals, Inc., priority 2013, dated 2020).

Molecules are shown by their SMILES.

The compound `N#Cc1ccnc(N2C(=O)[C@@H](O)C[C@H]2C(=O)N(c2cccc(F)c2)[C@H](C(=O)NC2CC(F)(F)C2)c2ccccc2Cl)c1` [Compound 118, (2S,4S)—N—((S)-1-(2-Chlorophenyl)-2-(3,3-difluorocyclobutylamino)-2-oxoethyl)-1-(4-cyano-pyridin-2-yl)-N-(3-fluorophenyl)-4-hydroxy-5-oxopyrrolidine-2-carboxamide] showed an IC50 of under 100 nM. Under `N#Cc1cc(F)cc(N(C(=O)[C@@H]2CCC(=O)N2c2cc(C#N)ccn2)[C@H](C(=O)NC2CC(F)(F)C2)c2ccccc2Cl)c1` [Compound 177, (S)—N—((S)-1-(2-Chlorophenyl)-2-(3,3-difluorocyclobutylamino)-2-oxoethyl)-N-(3-cyano-5-fluorophenyl)-1-(4-cyanopyridin-2-yl)-5-oxopyrrolidine-2-carboxamide] stands under 100 nM.

`Cc1ccc(N2C(=O)CC[C@H]2C(=O)N(c2cccc(F)c2)[C@H](C(=O)NC2CC(F)(F)C2)c2ccccc2Cl)nc1` [Compound 21]: the IC50 is 100 to 500 nM. The compound `N#Cc1ccnc(N2C(=O)CC[C@H]2C(=O)N(c2ccc3[nH]ccc3c2)[C@H](C(=O)NC2CC(F)(F)C2)c2ccccc2Cl)c1` [Compound 206, (S)—N—((S)-1-(2-Chlorophenyl)-2-((3,3-difluorocyclobutyl)amino)-2-oxoethyl)-1-(4-cyanopyridin-2-yl)-N-(1H-indol-5-yl)-5-oxopyrrolidine-2-carboxamide] registered an IC50 of under 100 nM. As for `N#Cc1ccnc(N2C(=O)CNC[C@H]2C(=O)N(c2cc(F)cc(F)c2)[C@H](C(=O)NC2CC(F)(F)C2)c2ccccc2Cl)n1` [Compound 99, (S)—N—((S)-1-(2-chlorophenyl)-2-((3,3-difluorocyclobutyl)amino)-2-oxoethyl)-1-(4-cyanopyrimidin-2-yl)-N-(3,5-difluorophenyl)-6-oxopiperazine-2-carboxamide], the IC50 is under 100 nM. `N#Cc1cccc(N(C(=O)[C@@H]2CCC(=O)N2c2cc(C#N)ccn2)[C@H](C(=O)NC2CCC(F)(F)CC2)c2ccccc2Cl)c1` [Compound 166, (S)—N—((S)-1-(2-Chlorophenyl)-2-((4,4-difluorocyclohexyl)amino)-2-oxoethyl)-N-(3-cyanophenyl)-1-(4-cyanopyridin-2-yl)-5-oxopyrrolidine-2-carboxamide] came in with an IC50 of under 100 nM. `N#Cc1ccnc(N2C(=O)CC[C@H]2C(=O)N(c2cc(F)cc(S(N)(=O)=O)c2)[C@H](C(=O)NC2CC(F)(F)C2)c2ccccc2Cl)c1` [Compound 158, (2S)—N-(1-(2-chlorophenyl)-2-(3,3-difluorocyclobutylamino)-2-oxo-ethyl)-1-(4-cyanopyridin-2-yl)-N-(3-fluoro-5-sulfamoylphenyl)-5-oxopyrrolidine-2-carboxamide] returned a half-maximal inhibitory concentration (IC50) of under 100 nM. `N#Cc1ccnc(N2C(=O)OC[C@H]2C(=O)N(c2cncc(F)c2)[C@H](C(=O)NC2CCC(F)(F)CC2)c2ccccc2Cl)c1` [Compound 132, (S)—N—((S)-1-(2-Chlorophenyl)-2-((4,4-difluorocyclohexyl)amino)-2-oxoethyl)-3-(4-cyanopyri-din-2-yl)-N-(5-fluoropyridin-3-yl)-2-oxooxazolidine-4-carboxamide] had an IC50 of under 100 nM. `CCOC(=O)CN1C[C@@H](C(=O)N(c2cccc(F)c2)[C@H](C(=O)NC2CC(F)(F)C2)c2ccccc2Cl)N(c2cc(C#N)ccn2)C1=O` [Compound 94, Ethyl 2-((4S)-4-((1-(2-chlorophenyl)-2-((3,3-difluorocyclobutyl)amino)-2-oxoethyl)(3-fluorophenyl)carbamoyl)-3-(4-cyanopyridin-2-yl)-2-oxoimidazolidin-1-yl)acetate] showed an IC50 of under 100 nM. Then `N#Cc1ccnc(N2C(=O)CCC[C@H]2C(=O)N(c2cccc(F)c2)[C@H](C(=O)NC2CCC(F)(F)CC2)c2ccccc2Cl)c1` [Compound 75, (S)—N—((S)-1-(2-Chlorophenyl)-2-((4,4-difluorocyclohexyl)amino)-2-oxoethyl)-1-(4-cyano-pyridin-2-yl)-N-(3-fluorophenyl)-6-oxopiperidine-2-carboxamide], with under 100 nM. Then `N#Cc1ccnc(N2C(=O)[C@H](O)C[C@H]2C(=O)N(c2cc(F)cc(F)c2)[C@@H](C(=O)NC2CC(F)(F)C2)c2ccccc2Cl)n1` [Compound 116, (2S,4R)—N—((R)-1-(2-Chlorophenyl)-2-((3,3-difluorocyclobutyl)amino)-2-oxoethyl)-1-(4-cyanopyrimidin-2-yl)-N-(3,5-difluorophenyl)-4-hydroxy-5-oxopyrrolidine-2-carboxamide], with 100 to 500 nM; and `COc1cccc(N(C(=O)[C@@H]2CCC(=O)N2c2cc(C#N)ccn2)[C@H](C(=O)NC2CC(F)(F)C2)c2ccccc2Cl)c1` [Compound 129, (S)—N—((S)-1-(2C)-2-((3,3-difluorocyclobutyl)amino)-2-oxoethyl)-1-(4-cyanopyridin-2-yl)-N-(3-methoxyphenyl)-5-oxopyrrolidine-2-carboxamide], with under 100 nM. Then `N#Cc1ccnc(N2C(=O)[C@H](O)C[C@H]2C(=O)N(c2cc(F)cc(F)c2)[C@H](C(=O)NC2CC(F)(F)C2)c2ccccc2Cl)n1` [Compound 117, (2S,4R)—N—((S)-1-(2-Chlorophenyl)-2-((3,3-difluorocyclobutyl)amino)-2-oxoethyl)-1-(4-cyanopyrimidin-2-yl)-N-(3,5-difluorophenyl)-4-hydroxy-5-oxopyrrolidine-2-carboxamide], with under 100 nM; and `N#Cc1ccnc(N2C(=O)CC[C@H]2C(=O)N(c2cncc(F)c2)C(C(=O)NC2CC(F)(F)C2)c2ccccc2Cl)c1` (stereo partly shown) [Compound 91], with under 100 nM. `N#Cc1ccnc(N2C(=O)CC[C@H]2C(=O)N(c2cccc3[nH]cnc23)C(C(=O)NC2CCC(F)(F)CC2)c2ccccc2Cl)c1` (stereo partly drawn) [Compound 141, (2S)—N-(1H-benzo[d]imidazol-7-yl)-N-(1-(2-chlorophenyl)-2-((4,4-difluorocyclohexyl)amino)-2-oxoethyl)-1-(4-cyanopyridin-2-yl)-5-oxopyrrolidine-2-carboxamide] returned an IC50 of under 100 nM.

`O=C(NC1CCC(F)(F)C1)C(c1ccccc1Cl)N(C(=O)[C@@H]1CCC(=O)N1c1ncccn1)c1cccc(F)c1` (mixture of isomers) [Compound 73, (2S)—N-(1-(2-Chlorophenyl)-2-((3,3-difluorocyclopentyl)amino)-2-oxoethyl)-N-(3-fluorophenyl)-5-oxo-1-(pyrimidin-2-yl)pyrrolidine-2-carboxamide]: the half-inhibitory concentration (IC50) is under 100 nM.

Take `N#Cc1ccnc(N2C(=O)CC[C@H]2C(=O)N(c2cc(F)cc(C3CC3)c2)[C@H](C(=O)NC2CC(F)(F)C2)c2ccccc2Cl)c1` [Compound 204, (S)—N—((S)-1-(2-Chlorophenyl)-2-((3,3-difluorocyclobutyl)amino)-2-oxoethyl)-1-(4-cyanopyri-din-2-yl)-N-(3-cyclopropyl-5-fluorophenyl)-5-oxopyrrolidine-2-carboxamide]: the IC50 is under 100 nM.

`N#Cc1ccnc(N2C(=O)CC[C@H]2C(=O)N(c2cccc(F)c2)[C@H](C(=O)NC2CC(F)(F)C2)c2ccccc2Cl)c1` [Compound 37] displayed an IC50 of under 100 nM. As for `N#Cc1ccnc(N2C(=O)[C@H](O)C[C@H]2C(=O)N(c2cccc(F)c2)[C@H](C(=O)NC2CCC(F)(F)CC2)c2ccccc2Cl)c1` [Compound 121, (2S,4R)—N—((S)-1-(2-Chlorophenyl)-2-((4,4-difluorocyclohexyl)amino)-2-oxoethyl)-1-(4-cyanopyridin-2-yl)-N-(3-fluorophenyl)-4-hydroxy-5-oxopyrrolidine-2-carboxamide], the IC50 is under 100 nM. With `N#Cc1ccnc(N2C(=O)CC[C@H]2C(=O)N(c2ccc3[nH]ncc3c2)[C@H](C(=O)NC2CCC(F)(F)CC2)c2ccccc2Cl)c1` [Compound 203, (S)—N—((S)-1-(2-Chlorophenyl)-2-((4,4-difluorocyclohexyl)amino)-2-oxoethyl)-1-(4-cyanopyridin-2-yl)-N-(1H-indazol-5-yl)-5-oxopyrrolidine-2-carboxamide], the IC50 was under 100 nM. `CC(=O)N1CC(=O)N(c2cc(C#N)ccn2)[C@H](C(=O)N(c2cccc(F)c2)[C@H](C(=O)NC2CC(F)(F)C2)c2ccccc2Cl)C1` [Compound 92, (S)-4-Acetyl-N—((S)-1-(2-chlorophenyl)-2-(3,3-difluorocyclobutylamino)-2-oxoethyl)-1-(4-cyanopyridin-2-yl)-N-(3-fluorophenyl)-6-oxopiperazine-2-carboxamide] had an IC50 of under 100 nM.

Compound `N#Cc1ccnc(N2C(=O)CC[C@H]2C(=O)N(c2cc(F)cc(F)c2)[C@H](C(=O)NC2CC(F)(F)C2)c2ccccc2Cl)c1` [Compound 71, (S)—N—((S)-1-(2-Chlorophenyl)-2-((3,3-difluorocyclobutyl)amino)-2-oxoethyl)-1-(4-cyanopyridin-2-yl)-N-(3,5-difluorophenyl)-5-oxopyrrolidine-2-carboxamide] had an IC50 of under 100 nM.

`N#Cc1ccnc(N2C(=O)CNC[C@H]2C(=O)N(c2cc(F)cc(F)c2)[C@H](C(=O)NC2CC(F)(F)C2)c2ccccc2Cl)c1` [Compound 100, (S)—N—((S)-1-(2-Chlorophenyl)-2-((3,3-difluorocyclobutyl)amino)-2-oxoethyl)-1-(4-cyanopyridin-2-yl)-N-(3,5-difluorophenyl)-6-oxopiperazine-2-carboxamide] gave an IC50 of under 100 nM.

In turn, `N#Cc1cccc(N(C(=O)[C@@H]2C[C@@H](O)C(=O)N2c2cc(C#N)ccn2)C(C(=O)NC2CC(F)(F)C2)c2ccccc2Cl)c1` (stereo partly drawn) [Compound 170, (2S,4R)—N-(1-(2-chlorophenyl)-2-((3,3-difluorocyclobutyl)amino)-2-oxoethyl)-N-(3-cyano-phenyl)-1-(4-cyanopyridin-2-yl)-4-hydroxy-5-oxopyrrolidine-2-carboxamide] showed an IC50 of under 100 nM.

`N#Cc1cc(C#N)cc(N(C(=O)[C@@H]2CCC(=O)N2c2cc(C#N)ccn2)C(C(=O)NC2CC(F)(F)C2)c2ccccc2Cl)c1` (stereo partly drawn) [Compound 191, (2S)—N-(1-(2-Chlorophenyl)-2-((3,3-difluorocyclobutyl)amino)-2-oxoethyl)-1-(4-cyanopyridin-2-yl)-N-(3,5-dicyanophenyl)-5-oxopyrrolidine-2-carboxamide] returned an IC50 of under 100 nM.
